According to patent publication US7939558B2, “Compounds having activity in increasing ion transport by mutant-CFTR and uses thereof” (The Regents of the University of California, priority 2004, dated 2011):
Like-named read-outs stand apart in the source and are kept apart here.

Tests used:
ΔF508-CFTR [1] = molecular target: T1, ΔF508-CFTR (Homo sapiens, UniProt P13569, DEL508-508); assay: Fluorescence (YFP-H148Q/I152L) I− influx assay of ΔF508-CFTR potentiator activity in FRT cells; format: cell-based; parameters: expressed in transfected cells; settings: 27° C. 24 h, forskolin 20 μM, read-out: Ka
Method in brief: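 FRT cells stably co-expressing ΔF508-CFTR and YFP-H148Q/I152L were held at 27 °C for 18–24 h, then given forskolin (20 μM final) and test compounds at 2.5 μM for about 15 min. I− influx rate came from the initial slope of YFP quenching after Cl− was replaced by I−, normalized to total fluorescence.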

ΔF508-CFTR [2] = molecular target: T1, ΔF508-CFTR; assay: Cell-attached patch-clamp of ΔF508-CFTR channel activity in FRT cells; format: cell-based; parameters: expressed in transfected cells; settings: 100 nM, forskolin 20 μM
Method: Experiments were performed in the cell-attached configuration of the patch-clamp technique on FRT cells expressing ΔF508-CFTR. Cells were seeded at a density of 10^4 cells/well and grown at 37° C. for 24-48 hours and then incubated for 24-48 hours at 27° C. to allow trafficking of the ΔF508 protein to the plasma membrane. Borosilicate glass pipettes were fire polished to obtain tip resistances of 2-4 MQ. Currents were sampled at 500 Hz using a patch-clamp amplifier (EPC-7, List, Darmstadt) and low-pass filtered using a 4-pole Bessel filter set at a cutoff frequency of 250 Hz and digitized at 500 Hz using an ITC-16 data translation interface (Instrutech). The extracellular (bath) solution contained (in mM): 150 NaCl, 1 CaCl2, 1 MgCl2, 10 glucose, 10 mannitol, and 10 TES (pH 7.4). The pipette solution contained (in mM): 120 CsCl, 1 MgCl2, 10 TEA-Cl, 0.5 EGTA, 1 Mg-ATP, and 10 Hepes (pH 7.3). Membrane conductances were monitored by alternating the membrane potential between +80 and −100 mV. Current-voltage relationships were generated by applying voltage pulses between −100 and +100 mV in 20 mV steps. Analysis of open channel probability (Po), mean channel open time (To), and mean channel closed time (Tc) was done using recordings of at least three minute intervals (Taddei et al., FEBS Lett. 558:52-56 (2004)). […]

intracellular cAMP = assay: cAMP enzymatic immunoassay of FRT cell lysates; format: cell-based, rat; settings: compounds 2 μM, 10 minutes, forskolin 0.5 μM
Method: cAMP activity was measured using the BIOTRAK enzymatic immunoassay (Amersham) of FRT cell lysates after incubation with the compounds for 10 minutes in the presence of 0.5 μM forskolin.
An analysis of compound specificity was also performed.

ΔF508-CFTR [3] = molecular target: T1, ΔF508-CFTR; assay: Short-circuit current in primary nasal epithelial cells from ΔF508 homozygous subject; format: cell-based; parameters: expressed in transfected cells; settings: 27° C. 20-24 hours, amiloride, forskolin 20 μM
Method: For short-circuit measurements cells were cultured on Snapwell permeable supports (Corning-Costar) at 500,000 cells/insert. […] Patch clamp experiments were done on ΔF508-CFTR-expressing FRT cells plated in 35-mm Petri dishes.
Human nasal epithelial cells from ΔF508 homozygote subjects were cultured as polarized monolayers on permeable supports for transepithelial short-circuit current measurement.

T1 sequence (P13569 with tags, fused parts or gaps DEL508-508): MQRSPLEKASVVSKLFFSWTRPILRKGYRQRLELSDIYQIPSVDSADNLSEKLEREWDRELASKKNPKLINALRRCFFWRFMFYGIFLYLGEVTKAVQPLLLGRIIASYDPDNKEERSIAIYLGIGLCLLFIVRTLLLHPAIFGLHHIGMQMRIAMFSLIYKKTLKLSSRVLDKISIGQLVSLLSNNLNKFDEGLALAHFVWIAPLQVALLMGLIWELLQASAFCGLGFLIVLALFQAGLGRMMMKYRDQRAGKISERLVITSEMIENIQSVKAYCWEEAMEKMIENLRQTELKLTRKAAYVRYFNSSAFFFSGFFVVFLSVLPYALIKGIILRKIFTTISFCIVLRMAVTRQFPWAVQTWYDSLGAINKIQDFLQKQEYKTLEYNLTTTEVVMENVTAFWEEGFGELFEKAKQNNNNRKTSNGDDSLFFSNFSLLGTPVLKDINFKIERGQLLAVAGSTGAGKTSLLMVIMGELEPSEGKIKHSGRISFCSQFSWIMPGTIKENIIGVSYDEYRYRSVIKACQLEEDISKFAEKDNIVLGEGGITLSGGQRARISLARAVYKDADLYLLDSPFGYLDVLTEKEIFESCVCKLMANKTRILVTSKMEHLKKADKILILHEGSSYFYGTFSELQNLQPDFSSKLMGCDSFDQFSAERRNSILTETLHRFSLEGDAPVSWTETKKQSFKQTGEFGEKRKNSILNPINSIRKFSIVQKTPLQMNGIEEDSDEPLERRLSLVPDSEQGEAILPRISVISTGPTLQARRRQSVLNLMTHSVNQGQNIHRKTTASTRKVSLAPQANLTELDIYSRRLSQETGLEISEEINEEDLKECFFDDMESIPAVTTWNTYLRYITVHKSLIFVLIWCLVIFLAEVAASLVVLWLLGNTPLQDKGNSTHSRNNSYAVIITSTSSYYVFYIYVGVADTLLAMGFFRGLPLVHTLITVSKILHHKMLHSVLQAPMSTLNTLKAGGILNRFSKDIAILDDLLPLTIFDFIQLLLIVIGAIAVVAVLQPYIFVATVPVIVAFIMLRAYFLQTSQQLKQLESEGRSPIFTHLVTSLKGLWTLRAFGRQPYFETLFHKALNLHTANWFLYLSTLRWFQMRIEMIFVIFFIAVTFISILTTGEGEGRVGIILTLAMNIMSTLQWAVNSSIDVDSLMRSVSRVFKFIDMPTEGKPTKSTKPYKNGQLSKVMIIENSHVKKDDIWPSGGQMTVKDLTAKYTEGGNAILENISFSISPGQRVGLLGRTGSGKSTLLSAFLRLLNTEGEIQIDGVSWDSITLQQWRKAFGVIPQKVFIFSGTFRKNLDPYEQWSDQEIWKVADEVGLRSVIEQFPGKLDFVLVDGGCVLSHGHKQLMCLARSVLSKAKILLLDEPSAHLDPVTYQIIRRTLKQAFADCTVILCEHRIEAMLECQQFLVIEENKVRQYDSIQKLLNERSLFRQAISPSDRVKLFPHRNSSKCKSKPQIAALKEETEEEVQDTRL

| SMILES | EC50 (ΔF508-CFTR [1]; phenylglycine containing compounds) [nM] | ΔF508-CFTR channel activity (ΔF508-CFTR [2]) | cAMP level (intracellular cAMP) | activation of ΔF508-CFTR current (ΔF508-CFTR [3]) | EC50 (ΔF508-CFTR [1]; sulfonamide containing compounds) [nM] |
| --- | --- | --- | --- | --- | --- |
| CC(C)c1ccc(NC(=O)C(c2ccccc2)N(C)C(=O)Cc2c[nH]c3ccccc23)cc1 (centres unmarked) [Compound P-1, 2-[(2-1H-Indol-3-yl-acetyl)-methyl-amino]-N-(4-isopropyl-phenyl)-2-phenyl-acetamide] | 300 | large increase in channel activity | did not increase cAMP above the level induced by forskolin | significant activation |  |
| C=CCNC(=O)c1c[nH]c2ccc(S(=O)(=O)N(C)c3ccccc3OCC)cc2c1=O [Compound S-1, 6-[(2-Ethoxy-phenyl)-methyl-sulfamoyl]-4-oxo-1,4-dihydro-quinoline-3-carboxylic acid allylamide] |  | large increase in channel activity | did not increase cAMP above the level induced by forskolin | significant activation | 300 |
